This passage reports Ki, pKi and inhibition results from ChEMBL document CHEMBL4507256 (2021).

The nature of data set [1]: GPCRScan assay: inhibition of GABA/PBR. On the set-up: species or system Rattus norvegicus; radioligand conc. used [nm] 0.3 – 2.0, parental cells brain tissue.
Data set [2] concerns the target Na+ channel (sodium channel alpha subunit family) (Homo sapiens, UniProt P35498+P35499+Q01118+Q14524+Q15858+Q99250+Q9NY46+Q9UI33+Q9UQD0+Q9Y5Y9). Kind of data set: Na+ channel CEREP ligand profiling. The class given is protein assay. To be noted: probe veratridine (ligand); compound concentration 10 uM.
Data set [3] addresses T1, Muscarinic acetylcholine receptor M1 (Homo sapiens) (UniProt P11229).
T1 sequence (whole entry): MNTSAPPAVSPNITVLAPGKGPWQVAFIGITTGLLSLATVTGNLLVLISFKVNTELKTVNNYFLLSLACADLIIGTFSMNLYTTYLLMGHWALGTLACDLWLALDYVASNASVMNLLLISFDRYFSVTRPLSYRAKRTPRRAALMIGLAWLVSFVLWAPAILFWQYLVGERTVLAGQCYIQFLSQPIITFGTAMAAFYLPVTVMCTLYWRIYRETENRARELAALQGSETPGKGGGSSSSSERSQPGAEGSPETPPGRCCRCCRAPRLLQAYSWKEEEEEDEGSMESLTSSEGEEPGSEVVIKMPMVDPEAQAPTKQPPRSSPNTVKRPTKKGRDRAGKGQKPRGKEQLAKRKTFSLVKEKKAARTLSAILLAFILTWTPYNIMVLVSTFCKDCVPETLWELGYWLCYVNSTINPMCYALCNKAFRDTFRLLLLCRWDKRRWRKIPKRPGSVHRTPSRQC
Kind of data set: M1 (h) CEREP ligand profiling. To be noted: Compound concentration 10.0 uM.

As a reminder, the Ki is the equilibrium dissociation constant of an inhibitor or competing ligand from its target. The term pKi denotes the Ki on a negative log10 scale, so that one unit is a factor of ten. As for `CCC(=N\O)/C(C)=C/c1ccc(F)c(C)c1` [A-226], in data set [1], the Ki was 3.69 µM and the pKi is on record as 5.44.

As a reminder, the inhibition is the change of the read-out against control, counted positive when it falls. For the compound `CCC(=N\O)/C(C)=C/c1ccc(F)cc1` [A-079], the inhibition at 10 µM in data set [2] is listed as 17% (not active). Moreover, the inhibition in data set [3] was 8%.
